The record followed here is patent US20260167637A1, “NLRP3 INFLAMMASOME INHIBITOR AND USE THEREOF” (TransThera Sciences (Nanjing), Inc., priority 2022, published 2026).

A short description of data set [1]: Stability in canine liver microsomes. The format is in vitro ADME. The conditions noted are these: canine liver microsomes 0.5 mg protein/mL, 1 μM test substance, β-NADPH 1 mM, 37° C.; for microsomal CLint at 1 μM / half-life at 1 μM: dog; for half-life at 1 μM: read-out: Canine t1/2. In short, it runs like this: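 Compounds (10 μM working solution; 0.1% DMSO) were incubated at 37 °C with dog or rat liver microsomes in phosphate buffer with 3 mM MgCl2, with or without NADPH, sampled to 60 min. Remaining compound was measured by LC/MS/MS; t1/2 and CL came from first-order kinetics.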
(Liver microsomes are vesicles of endoplasmic reticulum, rich in cytochrome P450 enzymes.)

Data set [2] addresses T1, hERG potassium ion channel (Homo sapiens, UniProt Q12809).
T1 construct: expressed in transfected cells
In words: Inhibition of hERG potassium ion channel, whole-cell patch clamp in HEK-293 cells. The format is cell-based. The conditions noted are these: HEK-293 cells stably expressing hERG, tail current, room temperature. On the procedure: Experimental Example 5: Inhibition of hERG Potassium Ion Channel by Compounds
1.1. An HEK-293 cell line stably expressing the hERG potassium channel was cultured at 37° C. with 5% carbon dioxide in DMEM medium containing 10% fetal bovine serum and 0.8 mg/mL G418. The cell density must not exceed 80%.
1.2. Before patch-clamp testing, cells were dissociated with TrypLE™ Express, and 4×10^3 cells were applied to a coverslip. After 18 h, testing was performed.
2.1. Blank control: DMSO stock solution.
2.2. Positive control: An appropriate amount of cisapride was weighed out and prepared into a 10 mM stock solution using dimethyl sulfoxide (DMSO). The stock solution was aliquoted, and the aliquots were stored at −20° C.
2.3. Compound: An appropriate amount of the compound was weighed out, and the required volume of DMSO was calculated using the formula DMSO volume=actual amount×purity (content)/(molecular weight×theoretical concentration), and measured out using a pipette. The compound that had been weighed out was dissolved in the DMSO that had been measured out using a pipette. Meanwhile, the mass of the DMSO was measured. The actual stock solution concentration was calculated based on the amount of DMSO finally used.
Before hERG channel current testing, the blank control stock solution was diluted with an appropriate amount of extracellular liquid to prepare a working solution. The positive control stock solution and the compound stock solution were diluted with an appropriate amount of extracellular liquid to prepare working solutions. […]
Recording electrodes were prepared from capillary glass tubes using a microelectrode puller. […] Under an inverted microscope, a microelectrode manipulator was used to immerse the electrode in extracellular liquid, and the electrode resistance (Rpip) was recorded. […] Then, slow capacitance compensation was performed, and experimental parameters such as membrane capacitance (Cm) and series resistance (Rs) were recorded. […]
For orientation: hERG is a cardiac potassium channel; its block is linked to QT prolongation.

As usually defined, the IC50 is the concentration needed to halve the response being measured. A higher IC50 goes with weaker potency in that assay. Broadly, the microsomal CLint is a measure of how fast metabolising enzymes remove a compound, apart from limits set by blood flow. A higher microsomal CLint goes with faster metabolism.

T1 sequence (Q12809 whole entry): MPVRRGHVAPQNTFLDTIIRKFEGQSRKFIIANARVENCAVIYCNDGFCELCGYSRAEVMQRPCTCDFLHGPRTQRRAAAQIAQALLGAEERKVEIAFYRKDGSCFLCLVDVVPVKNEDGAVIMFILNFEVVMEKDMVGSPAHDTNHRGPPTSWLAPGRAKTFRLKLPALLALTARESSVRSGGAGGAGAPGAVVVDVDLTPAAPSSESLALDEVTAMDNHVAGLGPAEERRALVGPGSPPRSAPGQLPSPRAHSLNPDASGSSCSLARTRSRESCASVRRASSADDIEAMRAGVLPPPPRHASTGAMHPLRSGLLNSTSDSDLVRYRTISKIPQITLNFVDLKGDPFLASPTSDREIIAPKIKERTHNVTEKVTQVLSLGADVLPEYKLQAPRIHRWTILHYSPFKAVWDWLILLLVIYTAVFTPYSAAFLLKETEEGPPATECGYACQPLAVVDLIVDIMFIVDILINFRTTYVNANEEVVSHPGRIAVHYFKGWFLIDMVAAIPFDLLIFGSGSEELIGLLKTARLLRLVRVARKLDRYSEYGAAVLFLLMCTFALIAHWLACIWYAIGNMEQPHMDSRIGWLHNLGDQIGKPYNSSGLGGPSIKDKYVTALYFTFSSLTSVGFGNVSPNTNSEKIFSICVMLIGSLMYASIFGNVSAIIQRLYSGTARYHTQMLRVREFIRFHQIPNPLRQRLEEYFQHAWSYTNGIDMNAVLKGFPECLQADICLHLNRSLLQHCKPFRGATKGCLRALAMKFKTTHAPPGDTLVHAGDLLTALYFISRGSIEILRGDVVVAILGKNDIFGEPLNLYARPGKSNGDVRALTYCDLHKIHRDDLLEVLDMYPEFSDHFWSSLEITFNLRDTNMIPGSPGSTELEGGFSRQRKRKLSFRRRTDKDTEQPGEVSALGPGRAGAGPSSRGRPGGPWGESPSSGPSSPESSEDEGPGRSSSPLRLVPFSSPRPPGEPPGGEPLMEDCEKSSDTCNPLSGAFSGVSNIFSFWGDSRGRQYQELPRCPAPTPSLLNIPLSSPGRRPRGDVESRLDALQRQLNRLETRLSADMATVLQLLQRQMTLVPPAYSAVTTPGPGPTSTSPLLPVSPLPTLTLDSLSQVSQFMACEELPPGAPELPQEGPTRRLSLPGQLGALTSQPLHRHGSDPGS

Turning to `C#Cc1ccc(-c2nnc(N[C@@H]3CCCN(C)C3)c(=O)n2C)c(O)c1` [Compound 23, (R)-3-(4-ethynyl-2-hydoxyphenyl)-4-methyl-6-((1-methylpiperidin-3-yl)amino)-1,2,4-triazin-5(4H)-one], in data set [1], the “Canine t1/2” value is recorded as “→∞”. Also, the IC50 in data set [2] was over 10 µM.
For the molecule `C#Cc1ccc(-c2nnc(N[C@@H]3CCCN(CCO)C3)cc2C2CC2)c(O)c1` [Compound 45, (R)-2-(4-Cyclopropyl-6-((1-(2-hydroxyethyl)piperidin-3-yl)amino)pyridazin-3-yl)-5-ethynylphenol], in data set [1], the microsomal CLint at 1 μM is 1.4 µL/min/mg and the half-life at 1 μM amounted to 16.5 h.
In the case of `C#Cc1ccc(-c2nnc(N[C@@H]3CCCN(C)C3)cc2C(C)C)c(O)c1` [Compound 81, (R)-5-ethynyl-2-(4-isopropyl-6-((1-methylpiperidin-3-yl)amino)pyridazin-3-yl)phenol], in data set [1], the microsomal CLint at 1 μM is 5 µL/min/mg and the half-life at 1 μM is 4.62 h. The IC50 in data set [2] is over 10 µM.
Turning to `C#Cc1ccc(-c2nnc(N[C@@H]3CCCN(C)C3)c(C#N)c2C)c(O)c1` [Compound 103, (R)-6-(4-ethynyl-2-hydroxyphenyl)-5-methyl-3-((1-methylpiperidin-3-yl)amino)pyridazine-4-carbonitrile], in data set [1], the microsomal CLint at 1 μM is 8.4 µL/min/mg and the half-life at 1 μM turned out to be 2.75 h. In addition, the IC50 in data set [2] is over 10 µM.
